Holding throughout (format): biochemical
The target of one experiment is T1, ACVR1B (ALK4) (Homo sapiens, UniProt P36896).
T1 construct: purchased Life Technologies PV4312
T1 sequence (P36896 24-505): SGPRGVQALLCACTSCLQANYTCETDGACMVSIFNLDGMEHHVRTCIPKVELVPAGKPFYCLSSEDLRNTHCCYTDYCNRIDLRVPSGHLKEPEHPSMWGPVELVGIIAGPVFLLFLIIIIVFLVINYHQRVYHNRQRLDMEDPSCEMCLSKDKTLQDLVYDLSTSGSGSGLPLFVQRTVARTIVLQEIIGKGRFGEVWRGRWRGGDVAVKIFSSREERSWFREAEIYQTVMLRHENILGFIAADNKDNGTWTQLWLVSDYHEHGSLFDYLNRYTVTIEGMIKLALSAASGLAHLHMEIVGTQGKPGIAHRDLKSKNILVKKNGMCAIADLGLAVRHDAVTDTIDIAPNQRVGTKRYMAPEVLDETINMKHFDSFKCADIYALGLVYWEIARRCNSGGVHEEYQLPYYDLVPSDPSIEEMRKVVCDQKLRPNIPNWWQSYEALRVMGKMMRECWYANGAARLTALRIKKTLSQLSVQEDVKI
The experiment is described as follows: Z'-LYTE kinase selectivity assay ACVR1B. The text has this: (§1) In order to compare the kinase selectivity of compounds (I) according to the invention with known prior art compounds the commercially provided SelectScreen® Kinase Profiling Service (Z′-LYTE®) was used (Life Technologies GmbH, Darmstadt, Germany) to investigate the ability of the compounds to inhibit a number of different, representatively selected human kinases. Further details regarding this service are available on the Life Technologies website at
(§2) The Z′-LYTE® biochemical assay employs a fluorescence-based, coupled-enzyme format and is based on the differential sensitivity of phosphorylated and non-phosphorylated peptides to proteolytic cleavage. The peptide substrate is labeled with two fluorophores—one at each end—that make up a FRET pair.
(§3) In the primary reaction, the kinase transfers the gamma-phosphate of ATP to a single tyrosine, serine or threonine residue in a synthetic FRET-peptide. In the secondary reaction, a site-specific protease recognizes and cleaves non-phosphorylated FRET-peptides. Phosphorylation of FRET-peptides suppresses cleavage by the Development Reagent. Cleavage disrupts FRET between the donor (i.e., coumarin) and acceptor (i.e., fluorescein) fluorophores on the FRET-peptide, whereas uncleaved, phosphorylated FRET-peptides maintain FRET. A ratiometric method, which calculates the ratio (the Emission Ratio) of donor emission to acceptor emission after excitation of the donor fluorophore at 400 nm, is used to quantitate reaction progress, as shown in the equation below.
(§4) The Test Compounds are screened at 1 μM.
The 2×ACVR1B (ALK4) (# PV4312)/Ser/Thr 16 (Z′-LYTE® Kinase Assay Kit—Ser/Thr 16 Peptide, # PV 3802) mixture is prepared in 50 mM HEPES pH 7.5, 0.01% BRIJ-35, 10 mM MnCl2, 1 mM EGTA, 2 mM DTT, 0.02% NaN3. The final 10 μL Kinase Reaction consists of 9.15-60 ng ACVR1B (ALK4) and 2 μM Ser/Thr 16 in 50 mM HEPES pH 7.5, 0.01% BRIJ-35, 5 mM MgCl2, 5 mM MnCl2, 1 mM EGTA, 1 mM DTT, 0.01% NaN3. After the 1 hour Kinase Reaction incubation, 5 μL of a 1:16 dilution of Development Reagent B is added.

In the next experiment the target is T2, STK3 (MST2) (Homo sapiens, UniProt Q13188).
T2 construct: purchased Life Technologies PV 4805
T2 sequence (Q13188 1-491): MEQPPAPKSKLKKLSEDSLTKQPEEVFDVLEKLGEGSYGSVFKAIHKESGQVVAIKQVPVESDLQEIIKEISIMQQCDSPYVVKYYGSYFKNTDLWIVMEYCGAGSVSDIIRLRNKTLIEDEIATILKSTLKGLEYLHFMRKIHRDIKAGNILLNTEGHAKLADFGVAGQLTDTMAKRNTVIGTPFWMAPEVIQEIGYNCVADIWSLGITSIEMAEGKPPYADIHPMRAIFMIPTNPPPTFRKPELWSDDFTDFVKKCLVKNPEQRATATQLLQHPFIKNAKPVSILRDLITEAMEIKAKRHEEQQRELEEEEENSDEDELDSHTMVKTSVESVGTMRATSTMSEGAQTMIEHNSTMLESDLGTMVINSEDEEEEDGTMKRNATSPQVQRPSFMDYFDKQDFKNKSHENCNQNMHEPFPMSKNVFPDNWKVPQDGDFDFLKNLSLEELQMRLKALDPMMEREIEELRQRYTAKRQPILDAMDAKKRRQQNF
In words: Z'-LYTE kinase selectivity assay STK3.
Text: as §1, §2, §3, §4
The 2×STK3 (MST2) (# PV 4805)/Ser/Thr 07 (Z′-LYTE® Kinase Assay Kit—Ser/Thr 7 Peptide, # PV 3180) mixture is prepared in 50 mM HEPES pH 6.5, 0.01% BRIJ-35, 10 mM MgCl2, 1 mM EGTA, 0.02% NaN3. The final 10 μL Kinase Reaction consists of 6.25-38.7 ng STK3 (MST2) and 2 μM Ser/Thr 07 in 50 mM HEPES pH 7.0, 0.01% BRIJ-35, 10 mM MgCl2, 1 mM EGTA, 0.01% NaN3. After the 1 hour Kinase Reaction incubation, 5 μL of a 1:65000 dilution of Development Reagent A is added.

In the next experiment the target is T3, STK6 (AURKA (Aurora A)) (Homo sapiens, UniProt O14965).
T3 construct: purchased Life Technologies PV 3612
T3 sequence (O14965 1-403): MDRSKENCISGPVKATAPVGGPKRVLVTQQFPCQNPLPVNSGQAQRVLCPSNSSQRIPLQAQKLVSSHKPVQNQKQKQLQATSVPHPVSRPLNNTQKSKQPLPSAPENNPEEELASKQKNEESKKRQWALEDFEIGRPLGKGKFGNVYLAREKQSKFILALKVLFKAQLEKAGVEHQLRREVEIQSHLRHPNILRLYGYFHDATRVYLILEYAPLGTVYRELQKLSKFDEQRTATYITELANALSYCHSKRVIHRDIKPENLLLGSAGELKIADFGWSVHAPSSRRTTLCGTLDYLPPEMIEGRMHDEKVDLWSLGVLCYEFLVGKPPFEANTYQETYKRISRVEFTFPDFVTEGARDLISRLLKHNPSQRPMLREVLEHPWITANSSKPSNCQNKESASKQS
In words: Z'-LYTE kinase selectivity assay STK6. The settings on record: read-out: STK6 (Aur A) % inhibition.
Text: as §1, §2, §3, §4
The 2×AURKA (Aurora A) (# PV 3612)/Ser/Thr 01 (Z′-LYTE® Kinase Assay Kit—Ser/Thr 1 Peptide, # PV 3174) mixture is prepared in 50 mM HEPES pH 7.5, 0.01% BRIJ-35, 10 mM MgCl2, 1 mM EGTA. The final 10 μL Kinase Reaction consists of 0.91-12.2 ng AURKA (Aurora A) and 2 μM Ser/Thr 01 in 50 mM HEPES pH 7.5, 0.01% BRIJ-35, 10 mM MgCl2, 1 mM EGTA. After the 1 hour Kinase Reaction incubation, 5 μL of a 1:4096 dilution of Development Reagent A is added.

A word on the inhibition: it is the drop in the measured response relative to a control, in per cent. As to `CC(O)CN1CCN(CCn2ccc(Nc3ncc4c(n3)-c3c(nn(C)c3-c3ccccc3)C[C@H]4C)n2)CC1` (stereo partly drawn) [Compound I-7], the inhibition at 1 µM was found to be 0% at ACVR1B (ALK4), 15% against STK3 (MST2) and 5% on STK6 (AURKA (Aurora A)).
On to `C[C@@H]1Cc2nn(C)c(-c3ccccc3)c2-c2nc(Nc3ccn(CCN4CCN(C)CC4)n3)ncc21` [Compound I-1], for which the inhibition at 1 µM on ACVR1B (ALK4) was -10%; on STK3 (MST2), 1%; at STK6 (AURKA (Aurora A)), -15%.
The like results for `C[C@@H]1Cc2nn(C)c(-c3ccccc3)c2-c2nc(Nc3ccn(CCN4CCN(CC(C)(C)O)CC4)n3)ncc21` [Compound I-3] were, in that order, 0%, -1% and 14%.
On to `C[C@@H]1Cc2nn(C)c(-c3ccccc3)c2-c2nc(Nc3ccn(CCN4CCN(CC(=O)OC5CCOCC5)CC4)n3)ncc21` [Compound I-8], for which the figures for the inhibition at 1 µM at ACVR1B (ALK4), on STK3 (MST2) and at STK6 (AURKA (Aurora A)) were -4%, -1% and 6%, respectively.
On to `COCCN1CCN(CCn2ccc(Nc3ncc4c(n3)-c3c(nn(C)c3-c3ccccc3)C[C@H]4C)n2)CC1` [Compound I-11], for which the inhibition at 1 µM was -11% against ACVR1B (ALK4), -2% against STK3 (MST2) and -12% on STK6 (AURKA (Aurora A)).
Consider `C[C@@H]1Cc2nn(C)c(-c3ccccc3)c2-c2nc(Nc3ccn(CCN4CCOCC4)n3)ncc21` [Compound I-2], for which the inhibition at 1 µM at ACVR1B (ALK4) turned out to be 0%; against STK3 (MST2), 5%; on STK6 (AURKA (Aurora A)), 12%.
`C[C@@H]1Cc2nn(C)c(-c3ccccc3)c2-c2nc(Nc3ccn(CCN4CCN(CC5CCCO5)CC4)n3)ncc21` (stereo partly drawn) [Compound I-9]: the values for the inhibition at 1 µM against ACVR1B (ALK4), against STK3 (MST2) and at STK6 (AURKA (Aurora A)) were 7%, -15% and 10%, respectively.

These data come from patent publication US10414769B2, “5,8-dimethyl-9-phenyl-5,8-dihydro-6H-pyrazolo[3,4-h]quinazolin-2-yl)-(1H-pyrazol-3-yl)-amines as IGF-1R/IR inhibitors” (Boehringer Ingelheim International GmbH, priority 2015, dated 2019).
